Source: PMC9571594, “Development of Semisynthetic Apoptosis-Inducing Agents Based on Natural Phenolic Acids Scaffold: Design, Synthesis and In-Vitro Biological Evaluation” (Molecules, 2022)
Several values for one entry are separate records, joined by “and”; a condition that tells them apart may be missing. Equal entries are not always repeated. Where two headings read alike, the source gives them in different places.

What was measured:
Assay type in all cases: cell-based
Caco-2 cancer cell line = experiment: MTT cell viability assay, Caco-2; settings: MTT, 48 h, average of triplicates, semi-synthesized compounds (Table 3), read-out: IC50 (μM) on Caco-2 cancer cell line
Procedure: MCF-7 cells (Human breast adenocarcinoma), HepG2 (human hepatocellular carcinoma), A549 (human lung adenocarcinoma), Caco-2 (colon carcinoma), PANC-1 (human pancreatic cancer), and Vero cells (derived from normal kidney cells) were supplied by (Holding Company for Biological Products and Vaccines VACSERA; Giza, Egypt). The cells were cultured in PRMI 1640 medium (Lonza, Switzerland) supplemented with 10% fetal bovine serum (Gibco), 1% penicillin and 1% streptomycin (Sigma Aldrich, Saint Louis, MO, USA) at 37 °C under an atmosphere of 5% CO2 and 95% air.
The effect of parent compounds and their derivatives were assessed by (3-(4,5-dimethylthiazol-2-yl)-2,5diphenyl-tetrazolium bromide) MTT assay. […] After a merged sheet of cells developed, the growth media was decanted from the 96-well microtiter and refilled with different concentrations of compounds (µg/mL), and the plate was incubated at 37 °C for 48 h to minimize exposure to the dissolving agent (Supporting Information).
MTT solution (BIO BASIC CANADA INC) was prepared [5 mg/mL in phosphate buffered saline (PBS)], added to each well and incubated for 4 h, then after removing the media, 200 μL of DMSO was added to each well to solubilize the formazan crystals and the optical density of the formazan product was measured at 560 nm using microplate reader (mindray, MR-96A). The results were calculated as the mean of the three independent experiments. […]
Determination of sample cytotoxicity on cells (MTT protocol) […]
well) and incubated at 37°C for 24 hours to develop a complete monolayer sheet.
2- Growth medium was decanted from 96 well micro titer plates after confluent sheet of cells were formed, cell monolayer was washed twice with wash media.
3- two-fold dilutions of tested sample was made in RPMI medium with 2% serum […]
4- 0.1 ml of each dilution was tested in different wells leaving 3 wells as control, receiving only maintenance medium.
5- Plate was incubated at 37°C and examined. Cells were checked for any physical signs of toxicity, e.g. partial or complete loss of the monolayer, rounding, shrinkage, […]
6- MTT solution was prepared (5mg/ml in PBS) (BIO BASIC CANADA INC).
8- 20ul MTT solution were added to each well. Place on a shaking table, 150rpm for 5 minutes, to thoroughly mix the MTT into the media.
10) Dump off the media. (dry plate on paper towels to remove residue if necessary. […] 9 ش - ايلعلا هبضهلا - مطقملا / ىسيئرلا لمعملا […]

Caco-2 cells [1] = experiment: Cell-cycle analysis by flow cytometry; settings: for %G0–G1 / %G2/M / %S / %Pre-G1: Caco-2 cells; for %G0–G1 / %G2/M / %S: cell-cycle distribution after treatment; for %Pre-G1: Pre-G1 = apoptotic population; for apoptotic population compared to the parent compound: Caco-2, in words, versus parent 1 or 2
Procedure: The potential candidates with anti-tumor effect on the Caco-2 cell line along with a high SI were chosen for cell-cycle analysis. The cell-cycle distribution and cell death were analyzed using Annexin V-FITC/PI staining and flow cytometry (Table 4, Figure 4).
In order to determine the percentage of viable, apoptotic and necrotic cells after treatment with our compounds, double-staining with fluorescein isothiocyanate (FITC) and PI was performed. Annexin V-FITC Apoptosis Detection Kit (BioVision, CA, USA) was used. Briefly, cultured Caco-2 were treated with the tested compounds or DMSO for 24h. Cells were then collected by centrifugation at 2000 rpm for 5 min, and the pellet was washed with PBS then centrifuged again at 2000 rpm for 5 min then resuspended in 500μL of the kit’s binding buffer before adding the Annexin V-FITC and PI. The cells were then incubated at room temperature in the dark for 5 min. […]
Assay : Cell Cycle Analysis
Kit used : ab139418_Propidium Iodide Flow Cytometry Kit/BD
Assay samples :Cell culture
(§1) Cpd. No. Cpd. No. Cpd. No. Cpd. No.

Caco-2 cells [2] = experiment: Annexin V-FITC/PI apoptosis assay by flow cytometry; design: key: % of cells; settings: annexin-V FITC/PI staining, 24h
Procedure: In order to determine the percentage of viable, apoptotic and necrotic cells after treatment with our compounds, double-staining with fluorescein isothiocyanate (FITC) and PI was performed. Annexin V-FITC Apoptosis Detection Kit (BioVision, CA, USA) was used. Briefly, cultured Caco-2 were treated with the tested compounds or DMSO for 24h. Cells were then collected by centrifugation at 2000 rpm for 5 min, and the pellet was washed with PBS then centrifuged again at 2000 rpm for 5 min then resuspended in 500μL of the kit’s binding buffer before adding the Annexin V-FITC and PI. The cells were then incubated at room temperature in the dark for 5 min. Annexin V-FITC binding was measured using FACS Calibur flow cytometer (BD biosciences, USA) (Ex = 488 nm, Em = 533 nm, FL1 filter for annexin and FL2 filter for PI).

p53 = experiment: RT-qPCR gene expression of p53
Procedure: (§2) Gene expression was chosen over Western blotting for more accurate quantification and thus comparison. The gene expression of the p53, caspase 3 and Bax genes was measured.
(§3) The treated cells were harvested and the total RNA was extracted using RNeasy Mini Kit (Qiagen) according to the manufacturer’s instruction. The primers of the required genes (Table 6) were used for SYBR Green qRT-PCR using a one-step RT-PCR kit with SYBR Green (Bio-Rad). qRT-PCR was performed on Rotor Gene Q (Qiagen). […] Rotor-Gene 6000 Series Software was used for data analysis. and their HGNC ID was added (Table 6) […]
(§4) Researcher : DR Moh.Abdelbasir email: m_a_baser@yahoo.com mob.01 […]
(§5) Reader : Rotorgene RT- PCR system
(§6) Kit used : Qiagen RNA extraction/BioRad syber green PCR MMX
(§7) Assay samples :Cell culture Lysate
as §1
(§8) Run On Software Version Rotor-Gene 1.7.87
(§9) This report generated by Rotor-Gene 6000 Series Software 1.7 (Build 87) Copyright 2000-2006 Corbett Research, a Division of Corbett Life Science. All rights reserved. […]

Caspase 3 = experiment: RT-qPCR gene expression of caspase 3
Procedure: as §2, §3, §4, §5, §6, §7, §1, §8, §9

Bax = experiment: RT-qPCR gene expression of Bax
Procedure: as §2, §3, §4, §5, §6, §7, §1, §8, §9

MMP-2 = experiment: RT-qPCR gene expression of MMP-2; settings: for MMP2 Fold Change: Caco2, relative to cont.Caco2 = 1
Procedure: (§10) The treated cells were harvested and the total RNA was extracted using RNeasy Mini Kit (Qiagen) according to the manufacturer’s instruction. The primers of the required genes (Table 6) were used for SYBR Green qRT-PCR using a one-step RT-PCR kit with SYBR Green (Bio-Rad). qRT-PCR was performed on Rotor Gene Q (Qiagen). […] Rotor-Gene 6000 Series Software was used for data analysis. and their HGNC ID was added (Table 6)
(§11) Researcher : Dr/Noura email: mob.
as §5, §6, §7, §1

MMP-9 = experiment: RT-qPCR gene expression of MMP-9; settings: for MMP9 Fold Change: Caco2, relative to cont.Caco2 = 1
Procedure: as §10, §11, §5, §6, §7, §1

Bcl-2 = experiment: RT-qPCR gene expression of Bcl-2; settings: Caco2, β-actin as control gene, relative to cont.Caco2 = 1; listed as FA9
Procedure: as §3, §4, §5, §6, §7, §1, §8, §9

[3] = Caco2, β-actin as control gene, relative to cont.Caco2 = 1, listed as FA9

| Compound | %G0–G1 (Caco-2 cells [1]) | %G2/M (Caco-2 cells [1]) | %S (Caco-2 cells [1]) | %Pre-G1 (Caco-2 cells [1]) | Apoptosis Total (Caco-2 cells [2]) | Early Apoptosis (Caco-2 cells [2]) | Necrosis (Caco-2 cells [2]) | MMP2 Fold Change (MMP-2) | MMP9 Fold Change (MMP-9) | IC50 (Caco-2 cancer cell line) | apoptotic population compared to the parent compound (Caco-2 cells [1]) | Late Apoptosis (Caco-2 cells [2]) | further results |
| --- | --- | --- | --- | --- | --- | --- | --- | --- | --- | --- | --- | --- | --- |
| COc1cc(/C=C/C(=O)NC2CCCCC2)ccc1O [Compound 15, (E)-N-Cyclohexyl-3-(4-hydroxy-3-methoxyphenyl)acrylamide] | 26.59 ± 2.67% | 50.83 ± 3.49% | 22.58 ± 2.91% | 25.17% and 25.17 ± 3.29% | 25.17 | 5.79 | 2.81 | 0.59±0.016 Fold Change | 0.37±0.007 Fold Change | – | – | – | IC50 (Caco-2 cancer cell line; Homo sapiens, Caco-2): 20 µM; %G0–G1 (Caco-2 cells [1]; listed as FA5): 26.59%; %G2/M (Caco-2 cells [1]; listed as FA5): 50.83%; %S (Caco-2 cells [1]; listed as FA5): 22.58%; overexpression of p53 gene (p53; Figures 6 and 7): 10 fold; overexpression of caspase 3 gene (Caspase 3; Figures 6 and 7): 15 fold; overexpression of Bax gene (Bax; Figures 6 and 7): 15 fold |
| COc1ccc(/C=C/C(=O)NCc2ccccc2)cc1O [Compound 18, (E)-N-Benzyl-3-(3-hydroxy-4-methoxyphenyl) acrylamide] | 33.26 ± 4.29% | 37.62 ± 2.47% | 29.12 ± 4.05% | 12.92 ± 2.16% | 12.92 | 3.88 | 1.73 | 0.42±0.011 Fold Change | 0.52±0.010 Fold Change | 50 µM | non-significant decrease | 7.31 | %G0–G1 (Caco-2 cells [1]; listed as FA9): 33.26%; %G2/M (Caco-2 cells [1]; listed as FA9): 37.62%; %S (Caco-2 cells [1]; listed as FA9): 29.12%; %Pre-G1 (Caco-2 cells [1]; listed as FA9): 12.92%; P53 gene expression Fold Change (p53; [3]): 5.87±0.27 Fold Change and 5.878 Fold Change; Casp3 gene expression Fold Change (Caspase 3; [3]): 6.02±0.33 Fold Change and 6.029 Fold Change; Bax gene expression Fold Change (Bax; [3]): 6.06±0.41 Fold Change and 6.068 Fold Change; Bcl2 gene expression Fold Change (Bcl-2): 0.58±0.03 Fold Change and 0.5856 Fold Change |
| (E)-3-(3-Hydroxy-4-methoxyphenyl)-N-(m-tolyl)acrylamide [Compound 17] | – | – | – | 12.11 ± 0.97% | 12.11 | 4.25 | 1.61 | – | – | 20 µM | non-significant decrease | 6.25 | %Pre-G1 (Caco-2 cells [1]; listed as FA8): 12.11%; expression of MMP2 (in words) (MMP-2; Figures 8 and 9): greatest inhibition; expression of MMP9 (in words) (MMP-9; Figures 8 and 9): greatest inhibition |
